Results published in US20250212879A1, “HERBICIDAL COMPOUNDS” (SYNGENTA CROP PROTECTION AG, priority 2022, published 2025).

Key:
Format in all cases: in vivo
Conditions in all cases: 250 g/ha, evaluated after 13 days, 100=total damage to plant, 0=no damage to plant
[1] = system: Amaranthus palmeri (AMAPA); assay: Pre-emergence biological efficacy, AMAPA
Experimental: (§1) Seeds of weeds and/or crops were sown in standard soil in pots (Amaranthus palmeri (AMAPA), Lolium perenne (LOLPE), Euphorbia heterophylla (EPHHL), Setaria faberi (SETFA), Echinochloa crus-galli (ECHCG), Ipomoea hederacea (IPOHE)). After cultivation for one day under controlled conditions in a glasshouse (at 24/19° C., day/night; 16 hours light), the plants were sprayed with an aqueous spray solution derived from the formulation of the technical active ingredient in a small amount of acetone and a special solvent and emulsifier mixture referred to as IF50 (11.12% Emulsogen EL360 TM+44.44% N-methylpyrrolidone+44.44% Dowanol DPM glycol ether), to create a 50 g/l solution which was then diluted using 0.2% Genapol X080 as diluent to give the desired final dose of test compound. Compounds were applied at a 250 g/ha unless otherwise stated. The test plants were then grown under controlled conditions in the glasshouse (at 24/18° C., day/night; 15 hours light; 50% humidity) and watered twice daily. After 13 days the test was evaluated (100=total damage to plant; 0=no damage to plant).

Lolium perenne (LOLPE) [2] = assay: Pre-emergence biological efficacy, LOLPE
Experimental: as §1

[3] = system: Euphorbia heterophylla (EPHHL); assay: Pre-emergence biological efficacy, EPHHL
Experimental: as §1

Setaria faberi (SETFA) [4] = assay: Pre-emergence biological efficacy, SETFA
Experimental: as §1

[5] = system: Echinochloa crus-galli (ECHCG); assay: Pre-emergence biological efficacy, ECHCG
Experimental: as §1

[6] = system: Ipomoea hederacea (IPOHE); assay: Pre-emergence biological efficacy, IPOHE
Experimental: as §1

[7] = system: Amaranthus palmeri (AMAPA); assay: Post-emergence biological efficacy, AMAPA
Experimental: as §1, with “(AMAPA), (CHEAL), Euphorbia heterophylla (EPHHL), Ipomoea hederacea (IPOHE), Eleusine indica (ELEIN),” for “(AMAPA),”, “Digitaria sanguinalis (DIGSA),” for “Euphorbia heterophylla (EPHHL),”, “(ECHCG)).” for “(ECHCG), Ipomoea hederacea (IPOHE)).”, “14 days” for “one day”, “XO80” for “X080”

CHEAL = assay: Post-emergence biological efficacy, CHEAL
Experimental: as §1, with “(AMAPA), (CHEAL), Euphorbia heterophylla (EPHHL), Ipomoea hederacea (IPOHE), Eleusine indica (ELEIN),” for “(AMAPA),”, “Digitaria sanguinalis (DIGSA),” for “Euphorbia heterophylla (EPHHL),”, “(ECHCG)).” for “(ECHCG), Ipomoea hederacea (IPOHE)).”, “14 days” for “one day”, “XO80” for “X080”

[8] = system: Euphorbia heterophylla (EPHHL); assay: Post-emergence biological efficacy, EPHHL
Experimental: as §1, with “(AMAPA), (CHEAL), Euphorbia heterophylla (EPHHL), Ipomoea hederacea (IPOHE), Eleusine indica (ELEIN),” for “(AMAPA),”, “Digitaria sanguinalis (DIGSA),” for “Euphorbia heterophylla (EPHHL),”, “(ECHCG)).” for “(ECHCG), Ipomoea hederacea (IPOHE)).”, “14 days” for “one day”, “XO80” for “X080”

[9] = system: Ipomoea hederacea (IPOHE); assay: Post-emergence biological efficacy, IPOHE
Experimental: as §1, with “(AMAPA), (CHEAL), Euphorbia heterophylla (EPHHL), Ipomoea hederacea (IPOHE), Eleusine indica (ELEIN),” for “(AMAPA),”, “Digitaria sanguinalis (DIGSA),” for “Euphorbia heterophylla (EPHHL),”, “(ECHCG)).” for “(ECHCG), Ipomoea hederacea (IPOHE)).”, “14 days” for “one day”, “XO80” for “X080”

Eleusine indica (ELEIN) = assay: Post-emergence biological efficacy, ELEIN
Experimental: as §1, with “(AMAPA), (CHEAL), Euphorbia heterophylla (EPHHL), Ipomoea hederacea (IPOHE), Eleusine indica (ELEIN),” for “(AMAPA),”, “Digitaria sanguinalis (DIGSA),” for “Euphorbia heterophylla (EPHHL),”, “(ECHCG)).” for “(ECHCG), Ipomoea hederacea (IPOHE)).”, “14 days” for “one day”, “XO80” for “X080”

Lolium perenne (LOLPE) [10] = assay: Post-emergence biological efficacy, LOLPE
Experimental: as §1, with “(AMAPA), (CHEAL), Euphorbia heterophylla (EPHHL), Ipomoea hederacea (IPOHE), Eleusine indica (ELEIN),” for “(AMAPA),”, “Digitaria sanguinalis (DIGSA),” for “Euphorbia heterophylla (EPHHL),”, “(ECHCG)).” for “(ECHCG), Ipomoea hederacea (IPOHE)).”, “14 days” for “one day”, “XO80” for “X080”

[11] = system: Digitaria sanguinalis (DIGSA); assay: Post-emergence biological efficacy, DIGSA
Experimental: as §1, with “(AMAPA), (CHEAL), Euphorbia heterophylla (EPHHL), Ipomoea hederacea (IPOHE), Eleusine indica (ELEIN),” for “(AMAPA),”, “Digitaria sanguinalis (DIGSA),” for “Euphorbia heterophylla (EPHHL),”, “(ECHCG)).” for “(ECHCG), Ipomoea hederacea (IPOHE)).”, “14 days” for “one day”, “XO80” for “X080”

Setaria faberi (SETFA) [12] = assay: Post-emergence biological efficacy, SETFA
Experimental: as §1, with “(AMAPA), (CHEAL), Euphorbia heterophylla (EPHHL), Ipomoea hederacea (IPOHE), Eleusine indica (ELEIN),” for “(AMAPA),”, “Digitaria sanguinalis (DIGSA),” for “Euphorbia heterophylla (EPHHL),”, “(ECHCG)).” for “(ECHCG), Ipomoea hederacea (IPOHE)).”, “14 days” for “one day”, “XO80” for “X080”

[13] = system: Echinochloa crus-galli (ECHCG); assay: Post-emergence biological efficacy, ECHCG
Experimental: as §1, with “(AMAPA), (CHEAL), Euphorbia heterophylla (EPHHL), Ipomoea hederacea (IPOHE), Eleusine indica (ELEIN),” for “(AMAPA),”, “Digitaria sanguinalis (DIGSA),” for “Euphorbia heterophylla (EPHHL),”, “(ECHCG)).” for “(ECHCG), Ipomoea hederacea (IPOHE)).”, “14 days” for “one day”, “XO80” for “X080”

Compound | damage to plant, AMAPA [1] | damage to plant, LOLPE (Lolium perenne (LOLPE) [2]) | damage to plant, EPHHL [3] | damage to plant, SETFA (Setaria faberi (SETFA) [4]) | damage to plant, ECHCG [5] | damage to plant, IPOHE [6] | damage to plant, AMAPA [7] | damage to plant, CHEAL (CHEAL) | damage to plant, EPHHL [8] | damage to plant, IPOHE [9] | damage to plant, ELEIN (Eleusine indica (ELEIN)) | damage to plant, LOLPE (Lolium perenne (LOLPE) [10]) | damage to plant, DIGSA [11] | damage to plant, SETFA (Setaria faberi (SETFA) [12]) | damage to plant, ECHCG [13]
CCOC(=O)C[C@H](C)OC(=O)c1cc(-c2ncc(C(F)(F)F)cc2Cl)ccc1Cl [Compound 1-525 (S-enantiomer), [(1S)-3-ethoxy-1-methyl-3-oxo-propyl] 2-chloro-5-[3-chloro-5-(trifluoromethyl)-2-pyridyl]-benzoate] | 100 | 100 | 100 | 100 | 100 | 70 | 100 | 100 | 100 | 90 | 100 | 100 | 100 | 100 | 100
CCOC(=O)CC(C)OC(=O)c1cc(-c2ncc(C(F)(F)F)cc2Cl)ccc1Cl (stereo not drawn) [Compound 1-525, (3-ethoxy-1-methyl-3-oxo-propyl) 2-chloro-5-[3-chloro-5-(trifluoromethyl)-2-pyridyl]benzoate] | 100 | 100 | 100 | 100 | 100 | 70 | 100 | 100 | 100 | 80 | 100 | 100 | 100 | 100 | 100
CCOC(=O)C[C@@H](C)OC(=O)c1cc(-c2ncc(C(F)(F)F)cc2Cl)c(F)cc1Cl [Compound 2-525 (R-enantiomer), [(1R)-3-ethoxy-1-methyl-3-oxo-propyl] 2-chloro-5-[3-chloro-5-(trifluoromethyl)-2-pyridyl]-4-fluoro-benzoate] | 100 | 100 | 100 | 100 | 100 | 60 | 100 | 100 | 100 | 100 | 100 | 100 | 100 | 100 | 100
CCOC(=O)C[C@H](C)OC(=O)c1cc(-c2ncc(C(F)(F)F)cc2Cl)c(F)cc1Cl [Compound 2-525 (S-enantiomer), [(1S)-3-ethoxy-1-methyl-3-oxo-propyl] 2-chloro-5-[3-chloro-5-(trifluoromethyl)-2-pyridyl]-4-fluoro-benzoate] | 100 | 100 | 100 | 100 | 100 | 100 | 100 | 100 | 100 | 100 | 100 | 100 | 100 | 100 | 100
COC(=O)C[C@H](C)OC(=O)c1nc(-c2ncc(C(F)(F)F)cc2Cl)c(F)cc1Cl [Compound 11-524 (S-enantiomer), [(1S)-3-methoxy-1-methyl-3-oxo-propyl] 3-chloro-6-[3-chloro-5-(trifluoromethyl)-2-pyridyl]-5-fluoro-pyridine-2-carboxylate] | 100 | 100 | 100 | 100 | 100 | 100 | 100 | 100 | 100 | 100 | 100 | 100 | 100 | 100 | 100
